Row | melting point [°C] | SMILES
1 | > 260 | Cl.Cn1cncc1C(O)(c1ccc(C=O)cc1)c1ccc2[nH]c(=O)cc(-c3cccc(Cl)c3)c2c1 (racemic)
2 | > 300 | Cl.Cn1cncc1C(O)(c1ccc(C(=O)O)cc1)c1ccc2[nH]c(=O)cc(-c3cccc(Cl)c3)c2c1.O (racemic) (hydrate or solvate)
3 | 230 | Cn1cncc1C(O)(c1ccc([N+](=O)[O-])cc1)c1ccc2c(c1)c(-c1cccc(Cl)c1)cc(=O)n2C (racemic) [Example B4, (±)-4-(3-chlorophenyl)-6-[hydroxy(1-methyl-1H-imidazol-5-yl)(4-nitrophenyl)methyl]-1-methyl-2(1H)-quinolinone]
4 | 208 | Cn1cncc1C(O)(c1ccc(C=O)cc1)c1ccc2c(c1)c(-c1cccc(Cl)c1)cc(=O)n2C (racemic) [Example B6, (±)-4-[[4-(3-chlorophenyl)-1,2-dihydro-1-methyl-2-oxo-6-quinolinyl]hydroxy(1-methyl-1H-imidazol-5-yl)methyl]benzaldehyde]
5 | 258 | Cn1cncc1C(N)(c1ccc([N+](=O)[O-])cc1)c1ccc2c(c1)c(-c1cccc(Cl)c1)cc(=O)n2C (racemic) [Example B8b, (±)-6-[amino(1-methyl-1H-imidazol-5-yl)(4-nitrophenyl)methyl]-4-(3-chlorophenyl)-1-methyl-2(1H)-quinolinone]
6 | 273 | Cn1cncc1C(O)(c1ccc(CO)cc1)c1ccc2c(c1)c(-c1cccc(Cl)c1)cc(=O)n2C (racemic) [Example B9, (±)-4-(3-chlorophenyl)-6-[hydroxy[4-(hydroxymethyl)phenyl](1-methyl-1H-imidazol-5-yl)methyl]-1-methyl-2(1H)-quinolinone]
7 | 236 | Cn1cncc1C(O)(c1ccc(-c2ccc(Cl)cc2)cc1)c1ccc2c(c1)c(-c1cccc(Cl)c1)cc(=O)n2C (racemic) [Example B10, (±)-6-[(4′-chloro[1,1′-biphenyl]-4-yl)hydroxy(1-methyl-1H-imidazol-5-yl)methyl]-4-(3-chlorophenyl)-1-methyl-2(1H)-quinolinone]
8 | 181 | CC(O)c1ccc(C(O)(c2ccc3c(c2)c(-c2cccc(Cl)c2)cc(=O)n3C)c2cncn2C)cc1 (racemic) [Example B17, (±)-4-(3-chlorophenyl)-6-[hydroxy[4-(1-hydroxyethyl)phenyl](1-methyl-1H-imidazol-5-yl)methyl]-1-methyl-2(1H)-quinolinone]
9 | > 260 | Cn1cncc1C(O)(c1ccc(C(=O)O)cc1)c1ccc2c(c1)c(-c1cccc(Cl)c1)cc(=O)n2C (racemic) [Example B19, (±)-4-[[4-(3-chlorophenyl)-1,2-dihydro-1-methyl-2-oxo-6-quinolinyl]hydroxy(1-methyl-1H-imidazol-5-yl)methyl]benzoic acid]
10 | 210 | Cn1cncc1C(O)(c1ccc(C#N)cc1)c1ccc2c(c1)c(-c1cccc(Cl)c1)cc(=O)n2C (racemic) [Example B41b, (±)-4-[[4-(3-chlorophenyl)-1,2-dihydro-1-methyl-2-oxo-6-quinolinyl]hydroxy(1-methyl-1H-imidazol-5yl)methyl]benzonitrile]
11 | 153 | Cn1cnnc1C(c1ccc(Cl)cc1)c1ccc2c(c1)c(-c1cccc(Cl)c1)cc(=O)n2C (centres unmarked) [Example B7, 4-(3-chlorophenyl)-6-[(4-chlorophenyl)(4-methyl-4H-1,2,4-triazol-3-yl)methyl]-1-methyl-2(1H)-quinolinone]
12 | 182 | Cn1cnnc1C(O)(c1ccc(Cl)cc1)c1ccc2c(c1)c(-c1cccc(Cl)c1)cc(=O)n2C (centres unmarked) [Example B13, 4-(3-chlorophenyl)-6-[(4-chlorophenyl)hydroxy(4-methyl-4H-1,2,4-triazol-3-yl)methyl]-1-methyl-2(1H)-quinolinone]
13 | 217 | Cn1cnnc1C(c1ccc(Cl)cc1)c1ccc2c(c1)c(-c1cccc(Cl)c1)nc1nnnn12 (centres unmarked) [Example B20, 5-(3-chlorophenyl)-7-[(4-chlorophenyl)(4methyl-4H-1,2,4-triazol-3-yl)methyl]-tetrazolo[1,5-a]quinazoline]
14 | 210 | Cn1cnnc1C(N)(c1ccc(Cl)cc1)c1ccc2c(c1)c(-c1cccc(Cl)c1)cc(=O)n2C (centres unmarked) [Example B22b, 6-[amino(4-chlorophenyl)(4-methyl-4H-1,2,4-triazol-3-yl)methyl]-4-(3-chlorophenyl)-1-methyl-2(1H)-quinolinone]
15 | 150 | Cn1cnnc1C(c1ccc(I)cc1)c1ccc2c(c1)c(-c1cccc(Cl)c1)nc1nnnn12 (centres unmarked) [Example B26b, tetrazolo[1,5-a]quinazoline, 5-(3-chlorophenyl)-7-[(4-iodophenyl)(4methyl-4H-1,2,4-triazol-3-yl)methyl]-]
16 | 65 | CSc1nnc(C(O)(c2ccc(Cl)cc2)c2ccc3c(c2)c(-c2cccc(Cl)c2)nc2nnnn23)n1C (stereo not drawn) [Example B28b, 5-(3-chlorophenyl)-α-(4-chlorophenyl)-α-[4-methyl-5-(methylthio)-4H-1,2,4-triazol-3-yl]-tetrazolo[1,5-a]quinazoline-7-methanol]

Row | melting point [°C] | SMILES
17 | 150 | CSc1nnc(C(N)(c2ccc(Cl)cc2)c2ccc3c(c2)c(-c2cccc(Cl)c2)nc2nnnn23)n1C (stereo not drawn) [Example B28d, 5-(3-chlorophenyl)-α-(4-chlorophenyl)-α-[4-methyl-5-(methylthio)-4H-1,2,4-triazol-3-yl]-tetrazolo[1,5-a]quinazoline-7-methanamine]
18 | 220 | Cn1cnnc1C(N)(c1ccc(Cl)cc1)c1ccc2c(c1)c(-c1cccc(Cl)c1)nc1nnnn12 (stereo not drawn) [Example B28e, 5-(3-chlorophenyl)-α-(4-chlorophenyl)-α-(4-methyl-4H-1,2,4-triazol-3-yl)-tetrazolo[1,5-a]quinazoline-7-methanamine]
19 | 238 | Cn1cnnc1C(N)(c1ccc(I)cc1)c1ccc2c(c1)c(-c1cccc(Cl)c1)nc1nnnn12 (stereo not drawn) [Example B29c, 5-(3-chlorophenyl)-α-(4-iodophenyl)-α-(4-methyl-4H-1,2,4-triazol-3-yl)-tetrazolo[1,5-a]quinazoline-7-methanamine]
20 | 194 | Cn1cnnc1C(N)(c1ccc(C#N)cc1)c1ccc2c(c1)c(-c1cccc(Cl)c1)nc1nnnn12 (centres unmarked) [Example B29d, 4-[amino[5-(3-chlorophenyl)tetrazolo[1,5-a]quinazolin-7-yl](4-methyl-4H-1,2,4-triazol-3-yl)methyl]-benzonitrile]
21 | > 260 | Cn1cncc1C(O)(c1ccc2c(c1)OCCO2)c1ccc2[nH]c(=O)nc(-c3cccc(Cl)c3)c2c1 (centres unmarked) [Example B30, 4-(3-chlorophenyl)-6-[(2,3-dihydro-1,4-benzodioxin-6-yl)hydroxy(1-methyl-1H-imidazol-5-yl)methyl]-2(1H)-quinazolinone]
22 | 260 | Cn1cnnc1C(CCl)(c1ccc(Cl)cc1)c1ccc2c(c1)c(-c1cccc(Cl)c1)cc(=O)n2C (centres unmarked) [Example B31, 6-[2-chloro-1-(4-chlorophenyl)-1-(4-methyl-4H-1,2,4-triazol-3-yl)ethyl]-4-(3-chlorophenyl)-1-methyl-2(1H)-quinolinone]
23 | > 260 | Cn1cnnc1C(O)(c1ccc(Cl)cc1)c1ccc2[nH]c(=O)cc(-c3cccc(Cl)c3)c2c1 (centres unmarked) [Example B32, 4-(3-chlorophenyl)-6-[(4-chlorophenyl)hydroxy(4-methyl-4H-1,2,4-triazol-3-yl)methyl]-2(1H)-quinolinone]
24 | 185 | Cn1cnnc1C(O)(c1ccc(Cl)cc1)c1ccc2c(c1)c(-c1cccc(Cl)c1)cc(=O)n2Cc1ccc(C#N)cc1 (centres unmarked) [Example B33, 4-[[4-(3-chlorophenyl)-6-[(4-chlorophenyl)hydroxy(4-methyl-4H-1,2,4-triazol-3-yl)methyl]-2-oxo-1(2H)-quinolinyl]methyl]-benzonitrile]
25 | 130 | Cn1cnnc1C(C)(c1ccc(Cl)cc1)c1ccc2c(c1)c(-c1cccc(Cl)c1)cc(=O)n2C.O=C(O)C(=O)O (centres unmarked) [Example B34, 4-(3-chlorophenyl)-6-[1-(4-chlorophenyl)-1-(4-methyl-4H-1,2,4-triazol-3-yl)ethyl]-1-methyl-2(1H)-quinolinone ethanedioate (1:1)]
26 | 220 | CCOC(=O)c1cn2c(cc(-c3cccc(Cl)c3)c3cc(C(c4ccc(Cl)cc4)c4nncn4C)ccc32)n1 (centres unmarked) [Example B35, ethyl 5-(3-chlorophenyl)-7-[(4-chlorophenyl)(4-methyl-4H-1,2,4-triazol-3-yl)methyl]-imidazo[1,2-a]quinoline-2-carboxylate]
27 | 170 | Cn1cncc1C(O)(c1ccc(C=O)cc1)c1ccc2c(c1)c(-c1cccc(Cl)c1)nc1nnnn12 (centres unmarked) [Example B38, 4-[[5-(3-chlorophenyl)tetrazolo[1,5-a]quinazolin-7-yl]hydroxy(1-methyl-1H-imidazol-5-yl)methyl]-benzaldehyde]
28 | 178 | Cn1c(=O)cc(-c2cccc(Cl)c2)c2cc(C(O)(c3ccc(Cl)cc3)c3cnccc3Cl)ccc21 (centres unmarked) [Example B39, 4-(3-chlorophenyl)-6-[(4-chlorophenyl)(4-chloro-3-pyridinyl)hydroxymethyl]-1-methyl-2(1H)-quinolinone]
29 | 180 | Cn1c(=O)cc(-c2cccc(Cl)c2)c2cc(C(N)(c3ccc(Cl)cc3)c3cnccc3Cl)ccc21 (centres unmarked) [Example B40b, 6-[amino(4-chlorophenyl)(4-chloro-3-pyridinyl)methyl]-4(3-chlorophenyl)-1-methyl-2(1H)-quinolinone]
30 | 245 | Cn1cncc1C(N)(c1ccc(C#N)cc1)c1ccc2c(c1)c(-c1cccc(Cl)c1)cc(=O)n2C (centres unmarked) [Example B41d, 4-[amino[4-(3-chlorophenyl)-1,2-dihydro-1-methyl-2-oxo-6quinolinyl](1-methyl-1H-imidazol-5-yl)methyl]-benzonitrile]
31 | 150 | Cn1cncc1C(N)(c1ccc(CN)cc1)c1ccc2c(c1)c(-c1cccc(Cl)c1)cc(=O)n2C (centres unmarked) [Example B41e, 6-[amino[4-(aminomethyl)phenyl](1-methyl-1H-imidazol-5-yl)methyl]-4-(3-chlorophenyl)-1-methyl-2(1H)-quinolinone]
32 | 262 | Cn1c(=O)cc(-c2cccc(Cl)c2)c2cc(C(O)(c3ccc(Cl)cc3)c3cnccc3N)ccc21 (centres unmarked) [Example B42, 6-[(4amino-3-pyridinyl)(4-chlorophenyl)hydroxymethyl]-4-(3-chlorophenyl)-1-methyl-2(1H)-quinolinone]
